# Data reported in PMC5519986 (2017).
# Assays:
# [1] = test system: dsDNA, dual labelled (FRET) (DNA, duplex) CAAAAATTTTTGCAAAAATTTTTG; assay: FRET melting; conditions: K+ (60 mM potassium cacodylate), pH 7.4, 100 nM DNA, 1 μM compound
# [2] = test system: c-MYC G-quadruplex DNA (DNA, G4) GGGGAGGGTGGGGAGGGTGGGG; assay: fluorescence titration (ligand fluorescence, Hill fit); conditions: K+ (100 mM Tris-KCl), pH 7.4, 25 °C, 1 μM ligand titrated with DNA
# [3] = test system: c-MYC G-quadruplex DNA, dual labelled (FRET) (DNA, G4) GGGGAGGGTGGGGAGGGTGGGG; assay: FRET melting; conditions: K+ (60 mM potassium cacodylate), pH 7.4, 100 nM DNA, 1 μM compound
# [4] = test system: dsDNA (control duplex DNA) (DNA, duplex) CAAAAATTTTTGCAAAAATTTTTG; assay: fluorescence titration (ligand fluorescence, Hill fit); conditions: K+ (100 mM Tris-KCl), pH 7.4, 25 °C, 1 μM ligand titrated with DNA
SMILES,ΔTm [1],KD [2],ΔTm [3],KD [4]
CN(C)CCCNC(=O)c1ccc(-n2c3ccccc3c3cc(-c4cn(-c5ccc(N)cc5)nn4)ccc32)cc1,1.61±0.12 °C,0.51 ± 0.05 µM,11.14±0.28 °C,> 25 µM
CN(C)CCCNC(=O)c1ccc(-n2c3ccccc3c3cc(-c4cn(CCCN(C)C)nn4)ccc32)cc1,8.41±0.21 °C,1.13 ± 0.03 µM,8.17±0.41 °C,0.88 ± 0.02 µM
CN(C)CCCNC(=O)c1ccc(-n2cc(-c3ccc4c(c3)c3ccccc3n4-c3ccc(C(=O)NCCCN(C)C)cc3)nn2)cc1,0.86±0.04 °C,0.17 ± 0.01 µM,19.3±0.96 °C,> 30 µM
